The results in this text go back to patent publication US12297190B2, “Modulators of STING (stimulator of interferon genes)” (PFIZER INC., priority 2019, dated 2025).

A word on the Ki: it is a dissociation constant, usually derived from enzyme kinetics or from competition with a known ligand. A high value points to a looser hold on the target.

For the test, the target named is R232-STING (Homo sapiens, UniProt Q86WV6, H232R). Kind of test: biochemical.
R232-STING, sequence (Q86WV6 155-341 H232R): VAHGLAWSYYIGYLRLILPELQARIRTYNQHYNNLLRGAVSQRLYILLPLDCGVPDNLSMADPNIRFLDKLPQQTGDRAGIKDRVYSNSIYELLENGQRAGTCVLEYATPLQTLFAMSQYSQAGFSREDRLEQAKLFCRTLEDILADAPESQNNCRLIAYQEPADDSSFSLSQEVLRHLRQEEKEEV
On to `CCn1nc(C)cc1-c1n[nH]c(-c2cc(C(N)=O)cc3c2cnn3CCN2CCO[C@@H](C)C2)n1` (racemic) [YY08, 4-[5-(1-ethyl-3-methyl-1H-pyrazol-5-yl)-4H-1,2,4-triazol-3-yl]-1-{2-[(2S)-2-methylmorpholin-4-yl]ethyl}-1H-indazole-6-carboxamide], for which the Ki stood at 373 nM.
Consider `CCN1CCCC[C@@H]1Cn1ncc2c(-c3nnc(-c4cc(C)nn4CC)[nH]3)cc(C(N)=O)cc21` (racemic) [ZZZ014, 4-[5-(1-ethyl-3-methyl-1H-pyrazol-5-yl)-4H-1,2,4-triazol-3-yl]-1-{[(2R)-1-ethylpiperidin-2-yl]methyl}-1H-indazole-6-carboxamide], for which the Ki was greater than 990 nM.
The value for `CCn1nc(C)cc1-c1nnc(-c2cc(C(N)=O)cc3c2cnn3[C@H](C)CCN2CCOCC2)[nH]1` (racemic) [ZZZ022, 4-[5-(1-ethyl-3-methyl-1H-pyrazol-5-yl)-4H-1,2,4-triazol-3-yl]-1-[(2R)-4-(morpholin-4-yl)butan-2-yl]-1H-indazole-6-carboxamide] was 447 nM.
In turn, `CCn1nc(C)cc1-c1nnc(-c2cc(C(N)=O)cc3c2cnn3CC[C@H]2CCCCN2C)[nH]1` (racemic) [ZZZ023, 4-[5-(1-ethyl-3-methyl-1H-pyrazol-5-yl)-4H-1,2,4-triazol-3-yl]-1-{2-[(2R)-1-methylpiperidin-2-yl]ethyl}-1H-indazole-6-carboxamide] returned a Ki greater than 990 nM.
The value for `CCCN1CCC[C@@H]1Cn1ncc2c(-c3nnc(-c4cc(C)nn4CC)[nH]3)cc(C(N)=O)cc21` (racemic) [ZZZ025, 4-[5-(1-ethyl-3-methyl-1H-pyrazol-5-yl)-4H-1,2,4-triazol-3-yl]-1-{[(2R)-1-propylpyrrolidin-2-yl]methyl}-1H-indazole-6-carboxamide] was 714 nM; that for `CCn1nc(C)cc1-c1nnc(-c2cc(C(N)=O)cc3c2cnn3CCCN2CCO[C@@H](C)C2)[nH]1` (racemic) [ZZZ029, 4-[5-(1-ethyl-3-methyl-1H-pyrazol-5-yl)-4H-1,2,4-triazol-3-yl]-1-{3-[(2S)-2-methylmorpholin-4-yl]propyl}-1H-indazole-6-carboxamide] was 561 nM.
For the compound `CCn1nc(C)cc1-c1nnc(-c2cc(C(N)=O)cc3c2cnn3[C@H](C)CCCN(C)C)[nH]1` (racemic) [ZZZ031, 1-[(2R)-5-(dimethylamino)pentan-2-yl]-4-[5-(1-ethyl-3-methyl-1H-pyrazol-5-yl)-4H-1,2,4-triazol-3-yl]-1H-indazole-6-carboxamide], the Ki was greater than 990 nM.
The value for `CCn1nc(C)cc1-c1nnc(-c2cc(C(N)=O)cc3c2cnn3C[C@H]2CCN(C3CC3)C2)[nH]1` (racemic) [ZZZ038, 1-{[(3S)-1-cyclopropylpyrrolidin-3-yl]methyl}-4-[5-(1-ethyl-3-methyl-1H-pyrazol-5-yl)-4H-1,2,4-triazol-3-yl]-1H-indazole-6-carboxamide] was 928 nM.
For the compound `CCn1nc(C)cc1-c1nnc(-c2cc(C(N)=O)cc3c2cnn3[C@H](C)C2CCN(C)CC2)[nH]1` (racemic) [ZZZ041, 4-[5-(1-ethyl-3-methyl-1H-pyrazol-5-yl)-4H-1,2,4-triazol-3-yl]-1-[(1R)-1-(1-methylpiperidin-4-yl)ethyl]-1H-indazole-6-carboxamide], the Ki was greater than 990 nM.
Take `CCn1nc(C)cc1-c1nnc(-c2cc(C(N)=O)cc3c2cnn3CC[C@@H]2CCCN(C)C2)[nH]1` (racemic) [ZZZ042, 4-[5-(1-ethyl-3-methyl-1H-pyrazol-5-yl)-4H-1,2,4-triazol-3-yl]-1-{2-[(3S)-1-methylpiperidin-3-yl]ethyl}-1H-indazole-6-carboxamide]: the Ki was greater than 990 nM.
Take `CCn1nc(C)cc1-c1nnc(-c2cc(C(N)=O)cc3c2cnn3C[C@@H]2CCC3(CNC3)O2)[nH]1` (racemic) [ZZZ063, 4-[5-(1-ethyl-3-methyl-1H-pyrazol-5-yl)-4H-1,2,4-triazol-3-yl]-1-{[(6S)-5-oxa-2-azaspiro[3.4]octan-6-yl]methyl}-1H-indazole-6-carboxamide]: the Ki is greater than 990 nM.
Take `CCn1nc(C)cc1-c1nnc(-c2cc(C(N)=O)cc3c2cnn3[C@H]2CCCNC2)[nH]1` (racemic) [ZZZ069, 4-[5-(1-ethyl-3-methyl-1H-pyrazol-5-yl)-4H-1,2,4-triazol-3-yl]-1-[(3S)-piperidin-3-yl]-1H-indazole-6-carboxamide]: the Ki is greater than 990 nM.
For `CCn1nc(C)cc1-c1nnc(-c2cc(C(N)=O)cc3c2cnn3C[C@H]2CC23CCNCC3)[nH]1` (racemic) [ZZZ072, 1-{[(1S)-6-azaspiro[2.5]octan-1-yl]methyl}-4-[5-(1-ethyl-3-methyl-1H-pyrazolo-5-yl)-4H-1,2,4-triazol-3-yl]-1H-indazole-6-carboxamide], the affinity, expressed as Ki, was 835 nM.
For the compound `CCn1nc(C)cc1-c1n[nH]c(-c2cc(C(N)=O)cc3c2cnn3CCN2C[C@H](C)OC[C@H]2C)n1` (racemic) [ZZZ089, 1-{2-[(2S,5R)-2,5-dimethylmorpholin-4-yl]ethyl}-4-[3-(1-ethyl-3-methyl-1H-pyrazol-5-yl)-1H-1,2,4-triazol-5-yl]-1H-indazole-6-carboxamide], the Ki is 917 nM.
`CCn1nc(C)cc1-c1n[nH]c(-c2cc(C(N)=O)cc3c2cnn3CCN2CCO[C@@H](CO)C2)n1` (racemic) [ZZZ092, 4-[3-(1-ethyl-3-methyl-1H-pyrazol-5-yl)-1H-1,2,4-triazol-5-yl]-1-{2-[(2R)-2-(hydroxymethyl)morpholin-4-yl]ethyl}-1H-indazole-6-carboxamide] came in with a Ki of 969 nM.
`CCn1nc(C)cc1-c1n[nH]c(-c2cc(C(N)=O)cc3c2cnn3CCN2CCOC[C@@H]2C2CC2)n1` (racemic) [ZZZ099, 1-{2-[(3S)-3-cyclopropylmorpholin-4-yl]ethyl}-4-[3-(1-ethyl-3-methyl-1H-pyrazol-5-yl)-1H-1,2,4-triazol-5-yl]-1H-indazole-6-carboxamide] showed a Ki of 723 nM.
`CCn1nc(C)cc1-c1n[nH]c(-c2cc(C(N)=O)cc3c2cnn3CCN2CCO[C@@H](COC)C2)n1` (racemic) [ZZZ114, 4-[3-(1-ethyl-3-methyl-1H-pyrazol-5-yl)-1H-1,2,4-triazol-5-yl]-1-{2-[(2R)-2-(methoxymethyl)morpholin-4-yl]ethyl}-1H-indazole-6-carboxamide] had an inhibitory constant (Ki) of 943 nM.
As for `CCn1nc(C)cc1-c1n[nH]c(-c2cc(C(N)=O)cc3c2cnn3CCN2CCO[C@@H](C3CC3)C2)n1` (racemic) [ZZZ117, 1-{2-[(2S)-2-cyclopropylmorpholin-4-yl]ethyl}-4-[3-(1-ethyl-3-methyl-1H-pyrazol-5-yl)-1H-1,2,4-triazol-5-yl]-1H-indazole-6-carboxamide], the Ki turned out to be 848 nM.
The value for `CCn1nc(C)cc1-c1n[nH]c(-c2cc(C(N)=O)cc3c2cnn3CCN2CC[C@H](O)C2)n1` (racemic) [ZZZ119, 4-[3-(1-ethyl-3-methyl-1H-pyrazol-5-yl)-1H-1,2,4-triazol-5-yl]-1-{2-[(3S)-3-hydroxypyrrolidin-1-yl]ethyl}-1H-indazole-6-carboxamide] was greater than 990 nM; that for `CCn1nc(C)cc1-c1nnc(-c2cc(C(N)=O)cc3[nH]ncc23)[nH]1` [ZZZ001, 4-[5-(1-ethyl-3-methyl-1H-pyrazol-5-yl)-4H-1,2,4-triazol-3-yl]-1H-indazole-6-carboxamide] was greater than 990 nM; that for `CCn1nc(C)cc1-c1nnc(-c2cc(C(N)=O)cc3c2nnn3C)[nH]1` [ZZZ002, 4-[5-(1-ethyl-3-methyl-1H-pyrazol-5-yl)-4H-1,2,4-triazol-3-yl]-1-methyl-1H-benzotriazole-6-carboxamide] was greater than 990 nM.
Under `CCn1nc(C)cc1-c1nnc(-c2cc(C(N)=O)cc3nn(C)nc23)[nH]1` [ZZZ003, 7-[5-(1-ethyl-3-methyl-1H-pyrazol-5-yl)-4H-1,2,4-triazol-3-yl]-2-methyl-2H-benzotriazole-5-carboxamide] stands greater than 990 nM; under `CCn1nc(C(=O)O)cc1-c1n[nH]c(-c2nc(C(N)=O)cc3c2cnn3C)n1` [ZZZ004, 5-[5-(6-carbamoyl-1-methyl-1H-pyrazolo[4,3-c]pyridin-4-yl)-1H-1,2,4-triazol-3-yl]-1-ethyl-1H-pyrazole-3-carboxylic acid], greater than 90 nM; under `CCc1cc(-c2n[nH]c(-c3cc(C(N)=O)cc4c3cnn4C)n2)n(CC)n1` [ZZZ005, 4-[3-(1,3-diethyl-1H-pyrazol-5-yl)-1H-1,2,4-triazol-5-yl]-1-methyl-1H-indazole-6-carboxamide], greater than 990 nM.
Compound `CCn1nc(C)cc1-c1nnc(-c2cc(C(N)=O)cc3nn(CCN(C)C)cc23)[nH]1` [ZZZ006, 2-[2-(dimethylamino)ethyl]-4-[5-(1-ethyl-3-methyl-1H-pyrazol-5-yl)-4H-1,2,4-triazol-3-yl]-2H-indazole-6-carboxamide] displayed a Ki greater than 990 nM.
`CCn1nc(C)cc1-c1nnc(-c2cc(C(N)=O)cc3c2cnn3CCCN(C)C)[nH]1` [ZZZ007, 1-[3-(dimethylamino)propyl]-4-[5-(1-ethyl-3-methyl-1H-pyrazol-5-yl)-4H-1,2,4-triazol-3-yl]-1H-indazole-6-carboxamide] returned a Ki of 850 nM. In other words, the sub-micromolar range.
`CCn1nc(C)cc1-c1ncc(-c2cc(C(N)=O)cc3c2cnn3C)[nH]1` [ZZZ009, 4-[2-(1-ethyl-3-methyl-1H-pyrazol-5-yl)-1H-imidazol-5-yl]-1-methyl-1H-indazole-6-carboxamide]: affinity was put at a Ki of 947 nM.
On to `CCn1nc(C)cc1-c1n[nH]c(-c2nc(C(N)=O)cc3cn[nH]c23)n1` [ZZZ010, 7-[3-(1-ethyl-3-methyl-1H-pyrazol-5-yl)-1H-1,2,4-triazol-5-yl]-1H-pyrazolo[3,4-c]pyridine-5-carboxamide], for which the Ki is greater than 990 nM.
Regarding `CCn1nc(C)cc1-c1nnc(-c2c(C(F)F)c(C(N)=O)cc3c2cnn3C)[nH]1` [ZZZ011, 5-(difluoromethyl)-4-[5-(1-ethyl-3-methyl-1H-pyrazol-5-yl)-4H-1,2,4-triazol-3-yl]-1-methyl-1H-indazole-6-carboxamide], the Ki was greater than 270 nM.
Compound `CCn1nc(C)cc1-c1n[nH]c(-c2nc(C(N)=O)cc3[nH]ncc23)n1` [ZZZ012, 4-[3-(1-ethyl-3-methyl-1H-pyrazol-5-yl)-1H-1,2,4-triazol-5-yl]-1H-pyrazolo[4,3-c]pyridine-6-carboxamide] came in with a Ki of 190 nM.
